Test results: the supplement of paper PMC10307832

Legend:
Assay in all cases: relative viability (nuclei count vs DMSO), 5 days (fraction); higher = more cells survive
Kobe2602 + Navitoclax = compound: C1=CC(=CC=C1NC(=S)NNC2=C(C=C(C=C2[N+](=O)[O-])C(F)(F)F)[N+](=O)[O-])F [Kobe2602] + CC1(C)CCC(c2ccc(Cl)cc2)=C(CN2CCN(c3ccc(C(=O)NS(=O)(=O)c4ccc(N[C@H](CCN5CCOCC5)CSc5ccccc5)c(S(=O)(=O)C(F)(F)F)c4)cc3)CC2)C1 [Navitoclax] (partner 0.5 µM)
In short: (§1)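 Relative viability equals treated-well nuclei counts divided by vehicle-well nuclei counts. Counts came from 4× images of lung cancer cell lines grown in 1536-well plates for 5 days after pin-tool dosing on the day after seeding. Dosing used one drug alone or a fixed anchor-drug dose plus five library-drug doses (not always all listed) in √10 steps, and values are medians of duplicate plates.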

Kobe2602 + AZD7762 = compound: C1=CC(=CC=C1NC(=S)NNC2=C(C=C(C=C2[N+](=O)[O-])C(F)(F)F)[N+](=O)[O-])F [Kobe2602] + NC(=O)Nc1cc(-c2cccc(F)c2)sc1C(=O)N[C@H]1CCCNC1 [AZD7762] (partner 0.2 µM)
In short: as §1

[1] = compound: COc1cc2nccc(Oc3ccc(NC(=O)C4(C(=O)Nc5ccc(F)cc5)CC4)cc3)c2cc1OC [Cabozantinib] + CC(=O)c1c(C)c2cnc(Nc3ccc(N4CCNCC4)cn3)nc2n(C2CCCC2)c1=O [Palbociclib] (partner 0.5 µM)
In short: as §1

Zosuquidar + Palbociclib = compound: O[C@@H](COc1cccc2ncccc12)CN1CCN([C@@H]2c3ccccc3[C@@H]3[C@H](c4ccccc42)C3(F)F)CC1 [Zosuquidar] + CC(=O)c1c(C)c2cnc(Nc3ccc(N4CCNCC4)cn3)nc2n(C2CCCC2)c1=O [Palbociclib] (partner 0.5 µM)
In short: as §1

Cell Line | relative viability (Kobe2602 + Navitoclax; first compound 0.2 µM) | relative viability (Kobe2602 + Navitoclax; first compound 0.6325 µM) | relative viability (Kobe2602 + Navitoclax; first compound 2 µM) | relative viability (Kobe2602 + Navitoclax; first compound 6.325 µM) | relative viability (Kobe2602 + Navitoclax; first compound 20 µM) | relative viability (Kobe2602 + AZD7762; first compound 0.2 µM) | relative viability (Kobe2602 + AZD7762; first compound 0.6325 µM) | relative viability (Kobe2602 + AZD7762; first compound 2 µM) | relative viability (Kobe2602 + AZD7762; first compound 6.325 µM) | relative viability (Kobe2602 + AZD7762; first compound 20 µM) | relative viability ([1]; first compound 0.02 µM) | relative viability ([1]; first compound 0.06325 µM) | relative viability ([1]; first compound 0.2 µM) | relative viability ([1]; first compound 0.6325 µM) | relative viability ([1]; first compound 2 µM) | relative viability (Zosuquidar + Palbociclib; first compound 0.01 µM) | relative viability (Zosuquidar + Palbociclib; first compound 0.03162 µM) | relative viability (Zosuquidar + Palbociclib; first compound 0.1 µM) | relative viability (Zosuquidar + Palbociclib; first compound 0.3162 µM) | relative viability (Zosuquidar + Palbociclib; first compound 1 µM)
NCI-H2087 | 0.959 | 0.934 | 1.01 | 1.03 | 0.849 | 1.24 | 1.22 | 1.22 | 1.32 | 1.13 | 0.187 | 0.302 | 0.273 | 0.249 | 0.253 | 0.19 | 0.25 | 0.243 | 0.205 | 0.249
NCI-H647 | 1.16 | 1.1 | 1.06 | 1.04 | 1.13 | 0.681 | 0.645 | 0.423 | 0.532 | 0.454 | 0.47 | 0.456 | 0.406 | 0.335 | 0.358 | 0.386 | 0.406 | 0.452 | 0.377 | 0.361
Calu-6 | 0.818 | 0.875 | 0.866 | 0.826 | 0.744 |  |  |  |  |  |  |  |  |  |  |  |  |  |  | 
LCLC-103H |  |  |  |  |  | 0.76 | 0.842 | 0.791 | 0.848 | 0.81 | 0.492 | 0.463 | 0.464 | 0.434 | 0.435 | 0.453 | 0.717 | 0.513 | 0.489 | 0.482
HCC-15 | 0.715 | 0.728 | 0.665 | 0.664 | 0.65 | 1.03 | 1.2 | 1.02 | 1.17 | 1.43 | 0.824 | 0.797 | 0.716 | 0.718 | 0.672 | 0.721 | 0.689 | 0.702 | 0.723 | 0.715
H3255 | 0.521 | 0.562 | 0.516 | 0.558 | 0.548 | 0.868 | 0.956 | 0.868 | 0.775 | 0.864 | 0.317 | 0.351 |  | 0.339 | 0.325 | 0.306 | 0.335 | 0.32 | 0.33 | 0.33
NCI-H1915 | 0.796 | 0.827 | 0.797 | 0.791 | 0.795 | 0.711 | 0.729 | 0.7 | 0.71 | 0.682 | 0.584 | 0.57 | 0.518 | 0.506 | 0.55 | 0.501 | 0.542 | 0.501 | 0.635 | 0.507
NCI-H1650 | 1.08 | 1.33 | 0.948 | 1.36 | 1.22 |  |  |  |  |  | 0.361 | 0.301 | 0.27 | 0.36 | 0.486 | 0.373 | 0.31 | 0.365 | 0.351 | 0.337
NCI-H661 |  |  |  |  |  |  |  |  |  |  | 0.385 | 0.43 | 0.425 | 0.422 | 0.463 | 0.404 | 0.4 | 0.415 | 0.416 | 0.408
NCI-H522 |  |  |  |  |  | 1.02 | 1.14 | 0.855 | 0.954 | 0.859 | 0.885 | 0.966 | 1.06 | 1.12 | 0.905 | 1.14 | 0.869 | 1.01 | 1.09 | 0.908
COR-L23 | 0.951 | 1.01 | 1.02 | 1.06 | 0.938 |  |  |  |  |  | 0.299 | 0.295 | 0.29 | 0.391 | 0.297 | 0.295 | 0.328 | 0.301 | 0.354 | 0.314
NCI-H596 | 0.908 | 1.05 | 0.949 | 0.962 | 0.992 | 1.13 | 0.978 | 1.03 | 0.87 | 1.02 |  |  |  |  |  |  |  |  |  | 
NCI-H2009 | 1.19 | 1.25 | 1.14 | 1.19 | 1.14 |  |  |  |  |  | 0.209 | 0.25 | 0.269 | 0.277 | 0.141 | 0.204 | 0.183 | 0.154 | 0.251 | 0.211
NCI-H1648 |  |  |  |  |  | 0.741 | 0.656 | 0.586 | 0.624 | 0.66 | 0.27 | 0.259 |  | 0.281 | 0.299 | 0.297 | 0.319 | 0.289 | 0.305 | 0.242
NCI-H1703 | 1.44 | 1.24 | 1.12 | 0.893 | 1.06 |  | 0.13 | 0.111 |  | 0.173 |  |  |  |  |  |  |  |  |  | 
EBC-1 | 0.373 | 0.488 | 0.436 | 0.452 | 0.483 |  |  |  |  |  |  |  |  |  |  |  |  |  |  | 
NCI-H2023 | 0.976 | 1.11 | 0.892 | 0.927 | 0.917 |  |  |  |  |  | 0.386 | 0.321 | 0.271 | 0.247 | 0.199 | 0.364 | 0.36 | 0.418 | 0.37 | 0.313
IA-LM |  | 0.741 | 0.737 | 0.639 | 0.669 |  |  |  |  |  |  |  |  |  |  |  |  |  |  | 
ABC-1 |  |  |  |  |  | 0.85 | 1 | 0.939 | 0.882 | 0.646 |  | 0.734 | 0.707 | 0.855 | 0.654 | 0.616 | 0.685 | 0.68 | 0.84 | 0.599
NCI-H650 |  |  |  |  |  | 0.843 | 1.14 | 0.924 | 0.971 | 1.06 | 0.343 | 0.325 | 0.339 | 0.317 | 0.296 | 0.305 | 0.327 | 0.331 | 0.364 | 0.378
SK-MES-1 | 1.14 | 1.23 | 1.09 | 1.19 | 1.23 |  |  |  |  |  | 0.34 | 0.305 | 0.379 | 0.39 | 0.298 | 0.332 | 0.347 | 0.374 | 0.329 | 0.319
SK-LU-1 | 0.818 | 0.984 | 0.713 | 1.01 | 0.967 |  |  |  |  |  | 0.357 | 0.486 | 0.439 | 0.344 | 0.364 | 0.396 | 0.381 | 0.408 | 0.432 | 0.396
